Test results published in US20140005163A1 (NOVARTIS AG, priority 2010, published 2014).

Assays:
PI3K alpha = molecular target: T1, PI3K alpha (Homo sapiens, UniProt P42336); experiment: PI3K alpha kinase assay (Kinase-Glo luminescence); format: biochemical
T1 construct: p85(iSH2) fusion partner (see partner chain) (N); His tag (C); made in house; host or cells: baculovirus; Tn5 (Trichoplusia ni) or TiniPro insect cells
Experimental: (§1) In a more preferred assay, the kinase reaction is performed in a final volume of 10 μL per well of a low volume non binding CORNING, 384 well black plate (Cat. No. #3676). The final concentrations of ATP and phosphatidyl inositol (PI) in the assay are 1 μM and 10 μg/mL respectively. The reaction is started by the addition of ATP.
(§2) The components of the assay are added per well as follows:
(§3) […] in 90% DMSO per well, in columns 1-20, 8 concentrations (1/3 and 1/3.33 serial dilution step) in single. • Low control: […] of 90% DMSO in half the wells of columns 23-24 (0.45% in final). • High control: […] of reference compound (e.g. compound of Example 7 in WO 2006/122806) in the other half of columns 23-24 (2.5 μM in final). • Standard: […] of reference compound as just mentioned diluted as the test compounds in columns 21-22 • 20 mL ‘buffer’ are prepared per assay: • 200 μL of 1M TRIS HCl pH7.5 (10 mM in final) • 60 μL of 1M MgCl2 (3 mM in final) • 500 μL of 2M NaCl (50 mM in final) • 100 μL of 10% CHAPS (0.05% in final) • 200 μL of 100 mM DTT (1 mM in final) • 18.94 mL of nanopure water • 10 mL ‘PI’ are prepared per assay: • 200 μL of 1 mg/ml L-alpha-Phosphatidylinositol (Liver Bovine, Avanti Polar Lipids Cat. No. 840042C MW=909.12) prepared in 3% OctylGlucoside (10 μg/ml in final) • 9.8 mL of ‘buffer’ • 10 mL ‘ATP’ are prepared per assay: • 6.7 μL of 3 mM stock of ATP giving a final concentration of 1 μM per well • 10 mL of ‘buffer’ • 2.5 mL of each PI3K construct are prepared per assay in ‘PI’ with the following final concentration: • 10 nM PI3K alfa EMV B1075 • 25 nM beta EMV BV949 • 10 nM delta EMV BV1060 • 150 nM gamma EMV BV950 • 5 μL of ‘PI/PI3K’ are added per well. • 5 μl ‘ATP’ are added per well to start the reaction. • The plates are then incubated at room temperature for 60 minutes (alfa, beta, delta) or 120 minutes (gamma). • The reaction is terminated by the addition of 10 μL Kinase-Glo (Promega Cat. No. #6714). • The assay plates are read after 10 minutes in Synergy 2 reader (BioTek, Vermont USA) with an integration time of 100 milliseconds and sensitivity set to 191. • Output: The High control is around 60'000 counts and the Low control is 30'000 or lower • This luminescence assay gives a useful Z′ ratio between 0.4 and 0.7
Two different constructs, BV 1052 and BV 1075, are used to generate the PI3 Kinase a proteins for compound screening.
(§4) IC50 is determined by a four parameter curve fitting routine that comes along with “excel fit”. […] Alternatively, IC50 values are calculated using idbsXLfit model 204, which is a 4 parameter logistic model.

PI3K delta = molecular target: T2, PI3K delta (Homo sapiens, UniProt O00329); experiment: PI3K delta kinase assay (Kinase-Glo luminescence); format: biochemical
T2 construct: for the full-length p110-d subunit are generated and fused by overlapping PCR; p85(iSH2) fusion partner (see partner chain) (N); His tag (C); made in house; host or cells: baculovirus; Tn5 (Trichoplusia ni) or TiniPro insect cells
Experimental: as §1, §2, §3
PI3Kγ BV-1060 p85(iSH2)-Gly Linker-p110d(Full-Length)-C-Term his Tag
as §4

mTOR = molecular target: T3, mTOR (Homo sapiens, UniProt P42345); experiment: Biochemical assay for m-TOR by TR-FRET; conditions: 8 μM ATP, 400 nM GFP-4EBP1, 0.5 nM mTOR
T3 construct: purchased Invitrogen Corporation (Carlsbad/CA, USA) PV4753
Experimental: Biochemical Assay for m-TOR by TR-FRET.
Assay components are purchased from Invitrogen Corporation (Carlsbad/CA, USA): GFP-4EBP1 (Cat. No. PV4759), Tb3+-α-p4EBP1 [pThr46] Antibody (Cat. No. PV4757), proprietary TR-FRET dilution buffer (Cat. No. PV3574), mTOR protein (Cat. No. PV4753).
Then 5 μL of ATP (8 μM final concentration) and GFP-4EBP1 (400 nM final concentration) with 5 μL mTOR proteins (0.5 nM final concentration) are incubated at rt. The standard reaction buffer for the TR-FRET mTOR assay contained 50 mM HEPES pH 7.5, 10 mM MnCl2, 50 mM NaCl, 1 mM EGTA, 1 mM DTT. Reactions were stopped with 10 μL of a mixture of EDTA containing the Tb3+-α-p4EBP1-[pT46] detection Ab (0.5 nM) in TR-FRET dilution buffer (proprietary to IVG). Plates are read 15 mins later in a Synergy2 reader using an integration time of 0.2 seconds and a delay of 0.1 seconds. […] A standard compound is used as a reference compound and included in all assay plates in the form of 16 dilution points in duplicate.

[1] = test system: PKB Ser473 phosphorylation in Rat1-myr-HA-p110 alpha cells; experiment: Reverse protein array assay, PKB Ser473 phosphorylation in Rat1-myr-p110 alpha cells; format: cell-based; conditions: 0.5 h, pAkt Ser473, 30 minutes compound incubation, read-out: p-PKB IC50
Experimental: (§5) The Rat1-myr-HA-p110 alpha, beta and delta cells were trypsinized and counted with a CASY TT cell counter (Schärfe System GmbH, Reutlingen Germany). […] The plates were incubated at 37° C. and 5% CO2 under humidified condition for at least 20 h. Compound of formula I working solutions were prepared freshly as serial 8 step dilutions (vol/vol) in DMSO on the day of the experiment. […] The final DMSO concentration was kept constant at 0.2%. cell culture medium containing 0.2% DMSO was used as vehicle treatment control. Post incubation, the cells were treated with the serial compound dilution. 50 μl of the compound medium mixture was added to the wells containing cells and 150 μl DMEM medium and incubated for 30 minutes (37° C., 5% CO2). After 30 minutes of incubation, the medium mixture was quickly removed by aspiration. […] 50 μl of the described lysis buffer mix was added to each well, followed by 10 minutes of incubation on ice.
(§6) The samples were spotted onto ZeptoMARKt PWG protein microarray chips (Zeptosens, Witterswil, Switzerland) with the piezoelectric microdispense-based, non-contact Nano-Plotter 2.1 (GeSiM, Grosserkmannsdorf, Germany). Each sample was spotted at 4 different sample concentrations (d1=100%, d2=75%, d3=50%, d4=25%) by diluting the cell lysate with the corresponding volume of lysis buffer mix. After spotting the ZeptoMARK® protein microarrays, the chips are incubated for 1 hour at 37° C. […] After 20 minutes of blocking the chips are extensively rinsed with deionized water (Milli-Q quality, 18MΩ×cm) and dried in a nitrogen air flow.
(§7) After incubation, the arrays were washed twice with 200 μl CAB1 buffer. […] The fluorescence signal was assessed with exposure times of 1, 3, 5 and 10 seconds, depending on the intensity of the signal. The resulting four images taken per array are stored as 16-bit TIF files.
(§8) The fluorescence images for each array were analyzed with the ZeptoVIEW Pro 2.0 software (Zeptosens, Witterswil, Switzerland) and the relative fluorescence intensity for each signal was calculated.

[2] = test system: PKB Ser473 phosphorylation in Rat1-myr-HA-p110 beta cells; experiment: Reverse protein array assay, PKB Ser473 phosphorylation in Rat1-myr-p110 beta cells; format: cell-based; conditions: 0.5 h, pAkt Ser473, 30 minutes incubation, read-out: p-PKB IC50
Experimental: as §5, §6, §7, §8

[3] = test system: S6 Ribosomal Protein phosphorylation Ser235/236 in TSC1 null mouse embryo fibroblast (MEF) cells; experiment: Reverse protein array assay, S6 Ribosomal Protein phosphorylation Ser235/236 in TSC1 null MEF cells; format: cell-based; conditions: 1 h, pS6 ribosomal protein Ser235/236, 60 minutes incubation, read-out: p-S6 IC50
Experimental: as §5, with “TSC1−/−” for “Rat1-myr-HA-p110 alpha, beta and delta”, “(Schirfe” for “(Schärfe”, “Working” for “Compound of formula I working”, “0.02%.” for “0.2%.”, “0.02%” for “0.2%”, “60” for “30”
The spotting of the chips follows the previous described method.

[4] = test system: PKB Ser473 phosphorylation in Rat1-myr-HA-p110 delta cells; experiment: Reverse protein array assay, PKB Ser473 phosphorylation in Rat1-myr-p110 delta cells; format: cell-based; conditions: read-out: p-PKB IC50
Experimental: as §5, §6, §7, §8

T1 sequence (P42336 with tags, fused parts or gaps limits assumed): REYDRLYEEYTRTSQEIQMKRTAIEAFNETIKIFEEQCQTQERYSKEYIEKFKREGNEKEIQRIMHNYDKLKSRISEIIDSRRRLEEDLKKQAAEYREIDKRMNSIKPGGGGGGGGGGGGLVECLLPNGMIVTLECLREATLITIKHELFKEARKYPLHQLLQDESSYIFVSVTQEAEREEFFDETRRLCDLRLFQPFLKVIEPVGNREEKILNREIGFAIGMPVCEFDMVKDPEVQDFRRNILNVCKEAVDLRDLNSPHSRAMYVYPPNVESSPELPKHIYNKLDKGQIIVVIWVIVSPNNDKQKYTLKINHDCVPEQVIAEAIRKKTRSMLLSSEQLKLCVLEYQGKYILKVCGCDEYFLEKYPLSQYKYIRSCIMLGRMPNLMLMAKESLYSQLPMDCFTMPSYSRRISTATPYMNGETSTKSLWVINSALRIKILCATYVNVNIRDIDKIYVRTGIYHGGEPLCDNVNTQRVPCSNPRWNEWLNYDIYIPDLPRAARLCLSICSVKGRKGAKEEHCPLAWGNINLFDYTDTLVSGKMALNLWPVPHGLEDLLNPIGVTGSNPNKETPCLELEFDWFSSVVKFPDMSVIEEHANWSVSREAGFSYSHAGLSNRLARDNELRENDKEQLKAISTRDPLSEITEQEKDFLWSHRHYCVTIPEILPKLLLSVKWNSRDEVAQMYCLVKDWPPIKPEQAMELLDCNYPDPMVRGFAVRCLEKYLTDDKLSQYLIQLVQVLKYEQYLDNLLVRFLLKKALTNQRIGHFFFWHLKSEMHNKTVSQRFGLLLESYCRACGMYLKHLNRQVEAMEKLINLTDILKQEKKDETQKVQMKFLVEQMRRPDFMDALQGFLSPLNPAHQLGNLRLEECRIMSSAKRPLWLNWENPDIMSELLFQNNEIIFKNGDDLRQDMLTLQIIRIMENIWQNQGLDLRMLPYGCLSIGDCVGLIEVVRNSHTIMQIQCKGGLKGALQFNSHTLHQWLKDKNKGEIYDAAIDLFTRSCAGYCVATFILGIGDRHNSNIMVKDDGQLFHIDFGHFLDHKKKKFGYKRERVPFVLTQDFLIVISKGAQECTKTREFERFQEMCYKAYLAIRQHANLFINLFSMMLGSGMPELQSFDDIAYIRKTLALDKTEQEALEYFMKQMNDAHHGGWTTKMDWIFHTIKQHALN
T3 sequence (P42345 1360-2549 limits assumed): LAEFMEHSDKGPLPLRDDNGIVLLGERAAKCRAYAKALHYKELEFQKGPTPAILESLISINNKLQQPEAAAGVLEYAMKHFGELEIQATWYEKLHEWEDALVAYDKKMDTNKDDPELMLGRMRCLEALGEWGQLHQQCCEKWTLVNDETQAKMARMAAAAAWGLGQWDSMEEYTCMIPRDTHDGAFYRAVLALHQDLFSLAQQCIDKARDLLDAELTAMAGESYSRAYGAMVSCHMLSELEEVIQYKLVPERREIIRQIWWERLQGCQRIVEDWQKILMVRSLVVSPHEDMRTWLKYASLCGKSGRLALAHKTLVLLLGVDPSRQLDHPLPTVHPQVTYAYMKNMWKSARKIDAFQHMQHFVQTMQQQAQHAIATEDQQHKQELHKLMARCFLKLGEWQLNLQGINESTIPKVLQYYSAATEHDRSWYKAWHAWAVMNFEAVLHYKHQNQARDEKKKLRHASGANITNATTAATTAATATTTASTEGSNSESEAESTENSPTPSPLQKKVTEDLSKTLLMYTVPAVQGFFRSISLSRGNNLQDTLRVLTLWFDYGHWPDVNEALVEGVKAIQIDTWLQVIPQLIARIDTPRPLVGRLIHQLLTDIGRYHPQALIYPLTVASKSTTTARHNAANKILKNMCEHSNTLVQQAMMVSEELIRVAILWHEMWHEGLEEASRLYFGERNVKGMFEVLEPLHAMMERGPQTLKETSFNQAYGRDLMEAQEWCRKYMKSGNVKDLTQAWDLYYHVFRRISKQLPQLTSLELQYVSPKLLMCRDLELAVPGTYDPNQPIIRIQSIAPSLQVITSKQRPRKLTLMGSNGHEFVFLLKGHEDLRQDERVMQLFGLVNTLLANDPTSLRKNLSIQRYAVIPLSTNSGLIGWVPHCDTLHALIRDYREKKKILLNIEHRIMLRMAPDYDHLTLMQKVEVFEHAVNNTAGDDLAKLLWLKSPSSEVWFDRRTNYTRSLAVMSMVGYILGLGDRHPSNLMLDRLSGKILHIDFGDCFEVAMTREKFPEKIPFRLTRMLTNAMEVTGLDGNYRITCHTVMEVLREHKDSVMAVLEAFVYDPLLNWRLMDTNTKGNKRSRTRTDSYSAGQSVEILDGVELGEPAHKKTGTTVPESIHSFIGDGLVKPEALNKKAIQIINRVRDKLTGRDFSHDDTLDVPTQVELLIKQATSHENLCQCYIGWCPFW
T2 sequence (O00329 with tags, fused parts or gaps limits assumed): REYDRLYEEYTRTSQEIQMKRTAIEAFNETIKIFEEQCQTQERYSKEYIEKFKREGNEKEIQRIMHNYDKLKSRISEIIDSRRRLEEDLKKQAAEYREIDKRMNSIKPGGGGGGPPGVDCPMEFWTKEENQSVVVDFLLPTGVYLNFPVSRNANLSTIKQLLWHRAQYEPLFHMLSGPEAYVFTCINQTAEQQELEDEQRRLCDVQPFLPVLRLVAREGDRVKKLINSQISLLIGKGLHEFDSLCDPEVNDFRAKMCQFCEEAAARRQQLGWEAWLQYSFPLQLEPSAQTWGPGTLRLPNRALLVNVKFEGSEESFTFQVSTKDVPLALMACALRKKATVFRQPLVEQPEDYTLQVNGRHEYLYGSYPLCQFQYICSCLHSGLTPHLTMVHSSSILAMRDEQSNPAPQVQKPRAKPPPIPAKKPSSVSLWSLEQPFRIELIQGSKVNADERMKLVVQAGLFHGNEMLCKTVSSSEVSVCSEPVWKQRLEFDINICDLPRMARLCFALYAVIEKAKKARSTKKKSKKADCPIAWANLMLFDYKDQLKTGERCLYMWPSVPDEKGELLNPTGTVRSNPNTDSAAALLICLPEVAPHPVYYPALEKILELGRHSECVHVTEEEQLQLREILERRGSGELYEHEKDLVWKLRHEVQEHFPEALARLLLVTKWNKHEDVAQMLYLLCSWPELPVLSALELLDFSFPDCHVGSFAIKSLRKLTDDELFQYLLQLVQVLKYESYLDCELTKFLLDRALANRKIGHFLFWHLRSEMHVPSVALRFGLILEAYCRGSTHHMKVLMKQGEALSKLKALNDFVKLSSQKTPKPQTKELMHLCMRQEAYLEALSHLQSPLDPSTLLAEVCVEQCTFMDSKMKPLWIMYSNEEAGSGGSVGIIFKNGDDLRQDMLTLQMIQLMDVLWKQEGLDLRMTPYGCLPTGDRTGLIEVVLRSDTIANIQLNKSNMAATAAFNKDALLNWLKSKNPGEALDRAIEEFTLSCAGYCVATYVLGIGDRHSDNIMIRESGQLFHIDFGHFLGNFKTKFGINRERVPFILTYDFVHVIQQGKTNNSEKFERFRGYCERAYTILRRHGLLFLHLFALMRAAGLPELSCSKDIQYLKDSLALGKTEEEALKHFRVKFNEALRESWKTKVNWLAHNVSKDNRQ

IC50 (PI3K alpha) | IC50 (PI3K delta) | IC50 (mTOR) | IC50 [1] | IC50 [2] | IC50 [4] | SMILES | IC50 [3]
220 nM | 211 nM | 123 nM | 58 nM | 119 nM | – | CO[C@H]1CCN(c2ccc(-c3ccc4ncc5c(c4c3)n(-c3cn(C)nc3C)c(=O)n5C)cn2)C1 [Example 213.2, 1-(1,3-Dimethyl-1H-pyrazol-4-yl)-8-[6-((S)-3-methoxy-pyrrolidin-1-yl)-pyridin-3-yl]-3-methyl-1,3-dihydro-imidazo[4,5-c]quinolin-2-one] | –
971 nM | – | 99 nM | 828 nM | – | – | Cc1nn(CC(=O)N2CCN(C)CC2)cc1-n1c(=O)n(C)c2cnc3ccc(-c4cnc(N5CCCC5)nc4)cc3c21 [Example 247.5, 3-Methyl-1-{3-methyl-1-[2-(4-methyl-piperazin-1-yl)-2-oxo-ethyl]-1H-pyrazol-4-yl}-8-(2-pyrrolidin-1-yl-pyrimidin-5-yl)-1,3-dihydro-imidazo[4,5-c]quinolin-2-one] | 201 nM
– | – | – | 8 nM | 12 nM | 9 nM | COc1cc(-c2ccc3ncc4c(c3c2)n(-c2cn(C)nc2C)c(=O)n4C)cnc1OC [Example 204, 8-(5,6-Dimethoxy-pyridin-3-yl)-1-(1,3-dimethyl-1H-pyrazol-4-yl)-3-methyl-1,3-dihydro-imidazo[4,5-c]quinolin-2-one] | < 0.5 nM
– | – | 14 nM | – | – | – | COc1ccc(-c2ccc3ncc4c(c3c2)n(-c2cn(C)nc2Cl)c(=O)n4C)cc1OC [1.10—] | –
– | – | – | < 5 nM | 11 nM | 9 nM | CCOc1cc(-c2ccc3ncc4c(c3c2)n(-c2cn(C)nc2C)c(=O)n4C)cnc1OC [Example 94, 1-(1,3-Dimethyl-1H-pyrazol-4-yl)-8-(5-ethoxy-6-methoxy-pyridin-3-yl)-3-methyl-1,3-dihydro-imidazo[4,5-c]quinolin-2-one] | –
– | – | 251 nM | 158 nM | 154 nM | 278 nM | CCn1nccc1-n1c(=O)n(C)c2cnc3ccc(-c4ccc(N(C)C)nc4)cc3c21 [Example 4.8, 8-(6-Dimethylamino-pyridin-3-yl)-1-(2-ethyl-2H-pyrazol-3-yl)-3-methyl-1,3-dihydro-imidazo[4,5-c]quinolin-2-one] | –
– | – | – | 285 nM | 608 nM | – | Cc1nn(C)cc1-n1c(=O)n(C)c2cnc3ccc(-c4ccc(NC5CCOCC5)nc4)cc3c21 [Example 214, 1-(1,3-Dimethyl-1H-pyrazol-4-yl)-3-methyl-8-[6-(tetrahydro-pyran-4-ylamino)-pyridin-3-yl]-1,3-dihydro-imidazo[4,5-c]quinolin-2-one] | 46 nM
543 nM | – | 100 nM | – | – | – | Cc1nn(CC(=O)N2CCN(C)CC2)cc1-n1c(=O)n(C)c2cnc3ccc(-c4ccccc4)cc3c21 [Example 134, 3-Methyl-1-{3-methyl-1-[2-(4-methyl-piperazin-1-yl)-2-oxo-ethyl]-1H-pyrazol-4-yl}-8-phenyl-1,3-dihydro-imidazo[4,5-c]quinolin-2-one] | –
– | – | – | 22 nM | 66 nM | 81 nM | COc1ccc(-c2ccc3ncc4c(c3c2)n(-c2cnn(C)c2C)c(=O)n4C)cc1OC [Example 1.1, 8-(3,4-Dimethoxy-phenyl)-1-(1,5-dimethyl-1H-pyrazol-4-yl)-3-methyl-1,3-dihydro-imidazo[4,5-c]quinolin-2-one] | 4 nM
– | – | – | 264 nM | 386 nM | 959 nM | Cc1nn(C)cc1-n1c(=O)n(C)c2cnc3ccc(-c4ccc(-n5ccnc5C)nc4)cc3c21 [Example 78, 1-(1,3-Dimethyl-1H-pyrazol-4-yl)-3-methyl-8-[6-(2-methyl-imidazol-1-yl)-pyridin-3-yl]-1,3-dihydro-imidazo[4,5-c]quinolin-2-one] | –
